This note sets out measurements from article PMC2728764 (ACS chemical biology, 2008).

What is called Km is the concentration of substrate that gives half-maximal velocity.

The test system of one experiment is AdmJ. Briefly: ATP-[…]PPi exchange assay. Format: biochemical, Pantoea agglomerans. To be noted: 5 mM ATP, 1 mM PPi, 10 mM MgCl2, 5 mM TCEP, 75 mM Tris pH 7.5, RT.
The target of a further experiment is AdmH (Pantoea agglomerans, UniProt Q84FL5). Put plainly: chiral radio-HPLC. Format: biochemical. To be noted: labelled compound ([14C]-L-Phe, 100 µM); 20 mM tricine pH 8.25, 30 °C.

As to `N[C@@H](CC(=O)O)c1ccccc1` [(S)-β-Phe], in the experiment with AdmJ, the Km was found to be 130 ± 34 µM. Moreover, at AdmH, the “chiral radio-HPLC” value is “The β-Phe generated by AdmH was found to be solely (S)-β-Phe”.
